The structures appear in SMILES notation.

One may read the melting point as the temperature of the solid-liquid transition.

On to `CC(C)n1nc(-c2sc(NCc3ccco3)nc2-c2ccccc2)ccc1=O`, for which the melting point is 115 to 116 °C.

`C/C=C/CC(=O)N[C@H]1CC[C@H](CCN2CCN(c3nccc4c3OCC4)CC2)CC1` registered a melting point of 170 °C. To `CCCC(=O)NCc1cccc2c1C(=O)N(C1CCC(=O)NC1=O)C2=O` (stereo not drawn) belongs 121 to 123 °C; to `CCOC(=O)C1=C(C)Nc2ccnc(OC(C)C)c2C1c1ccc(C(F)(F)F)cc1` (stereo not drawn), 117 to 120 °C; to `CC(=O)OCc1cccc([N+](=O)[O-])c1Br`, 60 to 63 °C. To `CC1(C)CCOC1(O)C(Cc1ccc(Cl)cc1)n1cncn1` (stereo not drawn) belongs 98 °C.

For `CN1CC(CCCl)Oc2ccc(F)cc2C1=S` (stereo not drawn), the melting point lay in the range of 135 to 137 °C.

Compound `O=C(CCCCCN1CCN(c2cccc(C(F)(F)F)c2)CC1)N1Cc2ccccc2C1` returned a melting point of 100 to 105 °C. To `Cc1ccccc1NC(=O)c1c(Cl)cccc1Cl` belongs 182 °C; to `O=C(O)CCCCC1Cc2ccc(F)cc2C1=O` (stereo not drawn), 122 to 123 °C; to `COc1ccc2c(c1)CCC1CCNC(=O)C(CCl)=C21` (stereo not drawn), 135 to 138 °C. Compound `COc1cccc(OC)c1-c1cc(C(=O)NCC(=O)O)nn1-c1ccc(C(=O)N(C)CCCN(C)C)cc1C(C)C` showed a melting point of 160 °C. To `O=C(O)COc1cc2c(-c3ccc(Cl)cc3)csc2c(Cl)c1Cl` belongs 206 to 208 °C; to `O=C(c1ccc([N+](=O)[O-])cc1)N1CCSC1=S`, 166 to 167 °C; to `CCN(CC)CCCN1c2cc(C)c(C)cc2N(C)C(=O)c2c(C)cc(C)nc21`, 104 to 106 °C. The compound `O=C(CC1CCCCC1)NC1CC(C(=O)O)Nc2cc(Cl)cc(Cl)c21` (stereo not drawn) showed a melting point of 197 to 200 °C.

In turn, `CS(=O)(=O)On1nnc2ccccc2c1=O` registered a melting point of 132 to 134 °C. For `CC(=O)c1ccc(NS(C)(=O)=O)c(Oc2ccccc2F)c1`, the melting point is 92 to 94 °C. As for `CCSc1nc(C)[nH]c1CO`, the melting point was found to be 153 °C. To `N#CC(C(=O)Nc1ccccc1)C(=O)c1nn(-c2ccccc2)c2c1CSc1ccc(NC(=O)CCC(=O)O)cc1-2` (stereo not drawn) belongs 230 to 233 °C; to `Cc1ccc(-n2c(-c3ccc(-c4ccc(-c5nc6c7ccccc7c7ccccc7c6n5-c5ccc(C)cc5)cc4)cc3)nc3c4ccccc4c4ccccc4c32)cc1`, 405 °C; to `CC(=O)c1cc2c(cc1C)C(C)(C)CCC2(C)C`, 54 to 57 °C. To `O=C(NCCCCCCCNC(=O)c1ccc(Oc2ccccc2)cc1)c1ccc(Oc2ccccc2)cc1` belongs 164 to 165 °C.

The compound `CC1=CC(c2cccs2)(C(C)C(=O)O)Nc2ccccc21` (stereo not drawn) had a melting point of 228 to 229 °C. `O=C(c1ccc([N+](=O)[O-])cc1)N1CCCCc2ncccc21`: the melting point fell in the range of 231 to 233 °C. To `CCCCn1c(S)nnc1C(=O)O` belongs 108 to 110 °C. To `COc1cccc(NC(=O)NC2N=C(C)c3cccc(C)c3N(CC(=O)N3CC4CCC(CC4)C3)C2=O)c1` (stereo not drawn) belongs 170 to 171 °C; to `CON1CCC2(CC1)NC(=O)NC2=O`, 230 to 234 °C. To `Cc1cc2c(C)cc(-c3ccccc3Cl)nc2nc1-c1ccccc1` belongs 151 to 153 °C; to `CNc1cccc2c1nc(-c1c(F)cccc1F)n2Cc1c(F)cccc1F`, 194 to 195 °C; to `COc1cc2[nH]c(=O)sc2cc1OC`, 192 to 193 °C.

For the compound `O=C(O)[C@@H]1Cc2c(ncn2Cc2ccccc2)CN1C(=O)C(c1ccc(Cl)cc1)c1ccc(Cl)cc1`, the melting point was 162 to 170 °C. To `COc1cc(CCCC#N)ccc1OCc1nc(-c2ccco2)oc1C` belongs 94 to 95 °C. To `O=C(Nc1ccc2c(c1)CS(=O)(=O)N2)C(=O)N1CCC(Cc2ccc(F)cc2)CC1` belongs 183 to 184 °C; to `c1ccc2c(c1)Nc1cc(-c3csc(CN4CCSCC4)n3)ccc1S2`, 229 to 231 °C. To `CCC(CC)(CC(=O)Nc1cccc(OCc2ccc3cc(C)ccc3n2)c1)C(=O)O` belongs 175 °C; to `CCCCCN(C)C12CN3CN(CN(C3)C1)C2`, 30 to 31 °C; to `O=c1c(O)c(-c2ccoc2)oc2ccccc12`, 165 to 166 °C. `N#Cc1cc(C#N)cc(Oc2ccnc(Oc3cc(Cl)cc(Cl)c3)n2)c1` registered a melting point of 196 °C. To `Cn1cc(C(=O)NCc2ccc(Cl)cc2)c(=O)c2cc(C#CCO)cc(F)c21` belongs 186 to 188 °C. To `O=C(Nc1ccc(-c2ncc(-c3ccc(NC(=O)C4CCCCCC4)cc3)[nH]2)cc1)c1ccc(F)cc1` belongs 314 to 316 °C. To `CNC1CCN(c2c(F)c(N)c3c(=O)c(C(=O)O)cn(C4CC4)c3c2C)C1` (stereo not drawn) belongs 200 to 202 °C. `Cn1c(CC#N)cc(Cl)c1C(=O)c1ccc(Cl)cc1` registered a melting point of 139 to 142 °C. To `C[C@@H]1OCCN(c2nc(N3CCOCC3)nc(-n3c(C(F)F)nc4ccccc43)n2)[C@@H]1C` (relative stereo) belongs 176 to 178 °C. In the case of `O=C(O)c1ccc(F)c(F)c1Nc1ccc(I)cc1Cl`, the melting point was 226 to 227 °C.

With `Brc1cccc2c1SSSSS2`, the melting point fell in the range of 93 to 98 °C. To `COc1c([N+](=O)[O-])cc(C#N)c(F)c1O` belongs 112 to 113 °C. To `O=C(NC(=O)C(c1ccccc1)c1ccccc1)OCC1CC1` belongs 108 °C; to `COc1ccccc1N1CCN(CCCO)CC1`, 88 to 89 °C; to `CCOC(=O)C1CCN(c2nc(COc3ccc(C=O)cc3OC)c(C)s2)CC1`, 97 to 98 °C. To `CC1=C(C(=O)OCCN(C)C)C(c2cccc([N+](=O)[O-])c2)C(C(=O)OCC2CC2)=C(C)N1` (stereo not drawn) belongs 125 to 126 °C; to `N#CC(C=O)c1cccc(C(F)(F)F)c1` (stereo not drawn), 103 to 106 °C; to `CCCC(c1ccc(C(=O)Nc2ccccc2)cc1OCc1ccc(Br)cc1)n1ccnc1` (stereo not drawn), 168 °C. Take `NS(=O)(=O)c1ccc(-c2cnn(Cc3ccccc3)c(=O)c2Cc2ccc(F)cc2)cc1`: the melting point lay within 120 to 123 °C.

In turn, `Nc1sc2c(c1C(=O)c1cccc(C(F)(F)F)c1)CCN(CCCc1ccccc1)C2` had a melting point of 176 to 178 °C. To `COc1ccncc1-c1ccc(OC2SCC(O)C(O)C2O)cn1` (stereo not drawn) belongs 207 °C. `CC(C)C(O)(C=Cc1ccc([N+](=O)[O-])cc1)CC(=O)OCc1ccccc1` (racemic) displayed a melting point of 64 to 65 °C. Turning to `CN(CCCS(=O)CCCC(F)(F)C(F)(F)F)CCOc1ccc(C2=C(c3ccccc3)CCCc3cc(O)ccc32)cc1` (stereo not drawn), the melting point fell in the range of 63 to 65 °C. To `CCOC(=O)NNc1cc(C)c(-c2ccc(C#N)cc2)nn1` belongs 189 to 191 °C. To `COCc1c(C=NO)ncc2[nH]c3cccc(Cc4ccc(Cl)cc4)c3c12` belongs 224 to 228 °C; to `NC(=O)C1(c2ccccc2)CCN(Cc2ccccc2)C1` (stereo not drawn), 88 to 90 °C. To `CCCC(=NOCC)C1=C(O)CC(c2ccc(C=O)cc2)CC1=O` (stereo not drawn) belongs 81 to 82 °C; to `N#CNC(=N)NC1CC1`, 106 °C; to `COc1ccc2cc(-n3c(C)nnc3C)cc(C)c2n1`, 211 to 213 °C. Compound `CC(c1ccccc1)N1CC2Cc3cc4ccccc4n3CC2C1` (stereo not drawn) displayed a melting point of 153 °C. To `C=CCNc1cc(OCC=C)c(C(=O)O)cc1Cl` belongs 83.5 to 86 °C; to `COc1ccccc1CNc1ccc2cc(Nc3cccc(C(F)(F)F)n3)ccc2n1`, 151 °C. To `O=C(c1ccc(F)cc1)N1CC2CC2(c2ccc(Cl)cc2)C1` (stereo not drawn) belongs 130 to 132 °C; to `Nc1ccc([N+](=O)[O-])cc1-c1cc([N+](=O)[O-])ccc1N`, 315 to 317 °C; to `Cn1nc(-c2c(Cl)cccc2Cl)nc1-c1sc(Cl)c(Cl)c1Cl`, 146 to 147 °C.

The compound `COC(=O)c1cn(C2=CC(C)(C)Oc3ccc(C#N)cc32)c2ccccc12` gave a melting point of 177 to 180 °C.

With `Nc1ccc(Nc2cc3c(cc2Nc2ccc(N)cc2)C(=O)NC3=O)cc1`, the melting point is 154 to 157 °C.

For the compound `CCOC(=O)c1cc(C)c2c(c1)c1ccccc1n2Cc1ccccc1`, the melting point is 118 to 119 °C. Consider `CCOCC(=NNc1ccc(C(F)(F)F)cc1)C(=O)O`, for which the melting point lay in the range of 96 to 99 °C. To `O=C(C=Cc1c(Cl)ccc(Cl)c1Cl)c1ccc(OC2CCCCO2)cc1` (stereo not drawn) belongs 101 to 104 °C; to `O=C(Nc1nc(C2CC2)no1)C(c1ccccc1)c1ccccc1`, 163 °C. To `CC(=O)OC1CSC(Oc2cccc(-c3c(C)n[nH]c3C)c2)C(OC(C)=O)C1OC(C)=O` (stereo not drawn) belongs 195 °C; to `CCOc1nnc2n1C=Cc1ccccc1C2`, 143 to 144 °C.

For `Cn1nc(-c2ncc(Cl)cc2F)cc1OCC(F)(F)F`, the melting point lay within 72 to 73 °C. To `CC12C=CC(=O)C=C1C(N=[N+]=[N-])CC1C2CCC2(C)C(=O)CCC12` (stereo not drawn) belongs 168 to 170 °C; to `N#Cc1ccc(OCc2ccc3ncoc3c2)cc1OC(C(=O)O)c1ccccc1Cl` (racemic), 172 to 178 °C; to `CCCCCC1=C(c2ccc(F)cc2)C(=NO)CC1`, 101 to 102 °C. To `FC(F)(F)c1ccc2nccc(Br)c2c1` belongs 56 °C. In turn, `COc1ccc(C=C2c3ccccc3C(=O)c3ccccc32)cc1OCC(=O)O` gave a melting point of 227 to 230 °C. Consider `O=C1C(Cc2ccccc2)SC(=S)N1c1nccs1` (stereo not drawn), for which the melting point lay in the range of 164 to 165 °C.

`COc1cccc(Cn2nc3oc(=O)cc(C)c3c2C)c1` displayed a melting point of 148 to 151 °C. To `CC(C)c1cc(Cl)cc(C(C)C)c1NC(=O)NS(=O)(=O)c1cccc(C(C)(C)O)c1` belongs 160 to 162 °C; to `CC(=O)Nc1cccc(OCc2ccccc2)c1CCOC(C)=O`, 118 to 119 °C.

Source of the values: a melting point compilation (Tetko et al.; mined from patent text by program, amines drawn as free bases though some values may be those of a salt).
